In brackets after ≈: the same amount, converted by molar mass.
Assays:
Format in all cases: cell-based
[1] = system: C. albicans SN152; experiment: MIC80 broth double-dilution assay; settings: YPAD medium, 30° C., 24 h; parent strain of the erg11ΔΔ/erg3ΔΔ mutant
Description: (§1) The antifungal activities of the 24 azole-COX inhibitor hybrids were evaluated against a panel of 16 representative strains of different species of the genus Candida. Candida species cause both superficial and systemic infections. The panel included strains of C. albicans, C. glabrata, C. parapsilosis, C. tropicalis, C. guilliermondii, C. dubliniensis, and C. auris (Table S2). To evaluate antifungal activity, the minimal inhibitory concentration 80% (MIC80) values were determined, which were defined as the lowest drug concentrations with turbidity (measured at OD600) less than or equal to that of specific 1:5 dilutions of the growth control. As controls, FLC and VOR, were tested.
(§2) MIC80 values were determined using the broth microdilution method over a concentration range of 0.003-64 μg/mL. Orange circles represent C. albicans strains, yellow circles represent C. glabrata strains, and green circles represent C. parapsilosis, C. tropicalis, C. dubliniensis and C. auris. Cells were grown in YPAD medium at 30° C. (For C. auris strains 37° C.) 24 h. Each concentration was tested in triplicate, and results were confirmed in at least two independent experiments.
(§3) The clinically used FLC and VOR act primarily by preventing ergosterol biosynthesis via inhibition of CYP51. Analysis was done to determine whether fungal growth inhibition by the hybrids required the presence of the ERG11 gene that encodes for CYP51. The antifungal activities of hybrids 1 and 5 and of FLC and VOR were determined against an erg11ΔΔ/erg3ΔΔ mutant C. albicans strain and against C. albicans SN152 from which this double knockout strain was derived (Table S2). […] Yeast growth was followed at OD600 over 48 h in 96-well plates containing serial double dilutions of the tested hybrids.
(§4) C. albicans, C. glabrata, C. parapsilosis, C. guilliermondii, C. tropicalis, and C. dubliniensis MICs were determined using CLSI M27-A3 guidelines with minor modifications. Starter cultures were streaked from glycerol stock onto YPAD agar plates and grown for 24 h at 30° C. Colonies were suspended in 1 mL PBS and diluted to 1×10^−3 OD600 and then diluted 1:100 into fresh medium. Hybrids dissolved in DMSO were added to YPAD broth (32 μL stock solution in 1218 μL of YPAD broth), and serial double dilutions of hybrids in YPAD were prepared in flat-bottomed 96-well microplates (Corning) to enable testing of concentrations ranging from 64 μg/mL to 0.003 μg/mL. Control wells with yeast cells but no drug and blank wells containing only YPAD were prepared. An equal volume (100 μL) of yeast suspensions in YPAD broth was added to each well with the exceptions of the blank wells. MIC values (Tables S4-S6) were determined after 24 h at 30° C. by measuring the OD600 using a plate reader (Infinite M200 PRO, Tecan). MIC values were defined as the point at which the OD600 was reduced by >80% compared to the no-drug wells. Each concentration was tested in triplicate, and results were confirmed by two independent sets of experiments. FLC and VOR were used as control drugs.

[2] = system: C. dubliniensis T-99; experiment: MIC80 broth double-dilution assay; settings: YPAD medium, 30° C., 24 h
Description: as §1, §2, §4

[3] = system: C. tropicalis 660; experiment: MIC80 broth double-dilution assay; settings: YPAD medium, 30° C., 24 h
Description: as §1, §2, §4

[4] = system: C. albicans ATCC 24433; experiment: MIC80 broth double-dilution assay; settings: YPAD medium, 30° C., 24 h
Description: as §1, §2, §4

[5] = system: C. parapsilosis ATCC 22019; experiment: MIC80 broth double-dilution assay; settings: YPAD medium, 30° C., 24 h
Description: as §1, §2, §4

[6] = system: C. albicans P-87; experiment: MIC80 broth double-dilution assay; settings: YPAD medium, 30° C., 24 h
Description: as §1, §2, §4

[7] = system: C. albicans ATCC 90028; experiment: MIC80 broth double-dilution assay; settings: YPAD medium, 30° C., 24 h
Description: as §1, §2, §4

[8] = system: C. albicans SC5314; experiment: MIC80 broth double-dilution assay; settings: YPAD medium, 30° C., 24 h
Description: as §1, §2, §4

[9] = system: C. guilliermondii T-47; experiment: MIC80 broth double-dilution assay; settings: YPAD medium, 30° C., 24 h
Description: as §1, §4

[10] = system: C. albicans 742 (erg11ΔΔ/erg3ΔΔ mutant C. albicans strain); experiment: MIC80 broth double-dilution assay, strain lacking CYP51; settings: YPAD medium, 30° C., 24 h; erg11ΔΔ/erg3ΔΔ mutant lacking CYP51
Description: as §1, §3, §4

SMILES	MIC80 against C. albicans SN152 [1]	MIC80 against C. dubliniensis T-99 [2]	MIC80 against C. tropicalis 660 [3]	MIC80 against C. albicans 24433 [4]	MIC80 against C. parapsilosis 22019 [5]	MIC80 against C. albicans P-87 [6]	MIC80 against C. albicans 90028 [7]	MIC80 against C. albicans SC5314 [8]	MIC80 against C. guilliermondii T-47 [9]	MIC80 against C. albicans 742 [10]
O=C(NC[C@@](O)(Cn1cncn1)c1ccc(F)cc1F)c1cc(-c2ccc(F)cc2F)ccc1O [Hybrid 20]	8 µg/mL (≈ 16.4 µM)	0.5 µg/mL (≈ 1.03 µM)	>64 µg/mL	16 µg/mL (≈ 32.9 µM)	8 µg/mL (≈ 16.4 µM)	8 µg/mL (≈ 16.4 µM)	16 µg/mL (≈ 32.9 µM)	8 µg/mL (≈ 16.4 µM)	>64 µg/mL	32 µg/mL (≈ 65.8 µM)
C[C@@H](C(=O)NC[C@](O)(Cn1cncn1)c1ccc(F)cc1F)c1cccc(C(=O)c2ccccc2)c1 [Hybrid 14]	0.5 µg/mL (≈ 1.02 µM)	4 µg/mL (≈ 8.15 µM)	16 µg/mL (≈ 32.6 µM)	1 µg/mL (≈ 2.04 µM)	8 µg/mL (≈ 16.3 µM)	1 µg/mL (≈ 2.04 µM)	1 µg/mL (≈ 2.04 µM)	1 µg/mL (≈ 2.04 µM)	16 µg/mL (≈ 32.6 µM)	>64 µg/mL
O=C(Cc1ccccc1Nc1c(Cl)cccc1Cl)NC[C@@](O)(Cn1cncn1)c1ccc(F)cc1F [Hybrid 24]	>64 µg/mL	2 µg/mL (≈ 3.76 µM)	>64 µg/mL	>64 µg/mL	>64 µg/mL	>64 µg/mL	>64 µg/mL	>64 µg/mL	>64 µg/mL	>64 µg/mL
C[C@@H](C(=O)NC[C@@](O)(Cn1cncn1)c1ccc(F)cc1F)c1cccc(C(=O)c2ccccc2)c1 [Hybrid 15]	>64 µg/mL	16 µg/mL (≈ 32.6 µM)	>64 µg/mL	>64 µg/mL	>64 µg/mL	>64 µg/mL	>64 µg/mL	>64 µg/mL	>64 µg/mL	>64 µg/mL
C[C@H](C(=O)NC[C@@](O)(Cn1cncn1)c1ccc(F)cc1F)c1cccc(C(=O)c2ccccc2)c1 [Hybrid 16]	>64 µg/mL	16 µg/mL (≈ 32.6 µM)	>64 µg/mL	>64 µg/mL	>64 µg/mL	>64 µg/mL	>64 µg/mL	>64 µg/mL	>64 µg/mL	>64 µg/mL
COc1ccc2cc([C@H](C)C(=O)NC[C@](O)(Cn3cncn3)c3ccc(F)cc3F)ccc2c1 [Hybrid 9]	0.012 µg/mL (≈ 0.0257 µM)	4 µg/mL (≈ 8.57 µM)	2 µg/mL (≈ 4.29 µM)	0.5 µg/mL (≈ 1.07 µM)	1 µg/mL (≈ 2.14 µM)	0.25 µg/mL (≈ 0.536 µM)	0.25 µg/mL (≈ 0.536 µM)	0.25 µg/mL (≈ 0.536 µM)	2 µg/mL (≈ 4.29 µM)	64 µg/mL (≈ 137 µM)
O=C(NC[C@@](O)(Cn1cncn1)c1ccc(F)cc1F)c1cccnc1Nc1cccc(C(F)(F)F)c1 [Hybrid 18]	8 µg/mL (≈ 15.4 µM)	16 µg/mL (≈ 30.9 µM)	>64 µg/mL	8 µg/mL (≈ 15.4 µM)	8 µg/mL (≈ 15.4 µM)	16 µg/mL (≈ 30.9 µM)	16 µg/mL (≈ 30.9 µM)	16 µg/mL (≈ 30.9 µM)	>64 µg/mL	64 µg/mL (≈ 123 µM)
COc1ccc2cc([C@H](C)C(=O)NC[C@@](O)(Cn3cncn3)c3ccc(F)cc3F)ccc2c1 [Hybrid 12]	2 µg/mL (≈ 4.29 µM)	32 µg/mL (≈ 68.6 µM)	>64 µg/mL	4 µg/mL (≈ 8.57 µM)	4 µg/mL (≈ 8.57 µM)	4 µg/mL (≈ 8.57 µM)	4 µg/mL (≈ 8.57 µM)	2 µg/mL (≈ 4.29 µM)	32 µg/mL (≈ 68.6 µM)	>64 µg/mL
C[C@@H](C(=O)NC[C@@](O)(Cn1cncn1)c1ccc(F)cc1F)c1ccc(-c2ccccc2)c(F)c1 [Hybrid 7]	8 µg/mL (≈ 16.6 µM)	0.5 µg/mL (≈ 1.04 µM)	64 µg/mL (≈ 133 µM)	16 µg/mL (≈ 33.3 µM)	8 µg/mL (≈ 16.6 µM)	4 µg/mL (≈ 8.32 µM)	8 µg/mL (≈ 16.6 µM)	4 µg/mL (≈ 8.32 µM)	32 µg/mL (≈ 66.6 µM)	64 µg/mL (≈ 133 µM)
CC(C)Cc1ccc([C@H](C)C(=O)NC[C@@](O)(Cn2cncn2)c2ccc(F)cc2F)cc1 [Hybrid 4]	1 µg/mL (≈ 2.26 µM)	0.03 µg/mL (≈ 0.0678 µM)	>64 µg/mL	2 µg/mL (≈ 4.52 µM)	8 µg/mL (≈ 18.1 µM)	0.5 µg/mL (≈ 1.13 µM)	1 µg/mL (≈ 2.26 µM)	1 µg/mL (≈ 2.26 µM)	16 µg/mL (≈ 36.2 µM)	>64 µg/mL
C[C@@H](C(=O)NC[C@](O)(Cn1cncn1)c1ccc(F)cc1F)c1ccc(-c2ccccc2)c(F)c1 [Hybrid 6]	0.06 µg/mL (≈ 0.125 µM)	2 µg/mL (≈ 4.16 µM)	8 µg/mL (≈ 16.6 µM)	0.12 µg/mL (≈ 0.25 µM)	2 µg/mL (≈ 4.16 µM)	0.03 µg/mL (≈ 0.0624 µM)	0.12 µg/mL (≈ 0.25 µM)	0.03 µg/mL (≈ 0.0624 µM)	2 µg/mL (≈ 4.16 µM)	>64 µg/mL
COc1ccc2cc([C@@H](C)C(=O)NC[C@@](O)(Cn3cncn3)c3ccc(F)cc3F)ccc2c1 [Hybrid 11]	0.5 µg/mL (≈ 1.07 µM)	8 µg/mL (≈ 17.1 µM)	8 µg/mL (≈ 17.1 µM)	1 µg/mL (≈ 2.14 µM)	4 µg/mL (≈ 8.57 µM)	1 µg/mL (≈ 2.14 µM)	1 µg/mL (≈ 2.14 µM)	0.5 µg/mL (≈ 1.07 µM)	8 µg/mL (≈ 17.1 µM)	>64 µg/mL
O=C(NC[C@@](O)(Cn1cncn1)c1ccc(F)cc1F)c1ccccc1O [Hybrid 22]	8 µg/mL (≈ 21.4 µM)	>64 µg/mL	32 µg/mL (≈ 85.5 µM)	16 µg/mL (≈ 42.7 µM)	8 µg/mL (≈ 21.4 µM)	16 µg/mL (≈ 42.7 µM)	8 µg/mL (≈ 21.4 µM)	8 µg/mL (≈ 21.4 µM)	16 µg/mL (≈ 42.7 µM)	>64 µg/mL
